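Grown in 96-well plates, cells were treated for 48 hours with each compound at five concentrations. Insufficient inhibition: endpoint recorded as highest concentration tested. GI50: concentration for 50% inhibition of growth. TGI: concentration producing complete growth inhibition.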
Key:
Test in all cases: growth of human tumour cells (NCI), 48 h
CCRF-CEM leukemia = system: CCRF-CEM leukemia
EKVX NSCLC = system: EKVX NSCLC
SNB-75 CNS = system: SNB-75 CNS
HCT-15 colon = system: HCT-15 colon
HT29 colon = system: HT29 colon
U251 CNS = system: U251 CNS
SK-MEL-28 melanoma = system: SK-MEL-28 melanoma
UO-31 renal = system: UO-31 renal
K-562 leukemia = system: K-562 leukemia
786-0 renal = system: 786-0 renal
NCI-H460 lung = system: NCI-H460 lung
NCI-H522 lung = system: NCI-H522 lung
UACC-62 melanoma = system: UACC-62 melanoma
NCI-H226 lung = system: NCI-H226 lung
SF-268 CNS = system: SF-268 CNS
SF-295 CNS = system: SF-295 CNS
MALME-3M melanoma = system: MALME-3M melanoma
HS 578T breast = system: HS 578T breast
TK-10 renal = system: TK-10 renal
SK-MEL-2 melanoma = system: SK-MEL-2 melanoma
SR leukemia = system: SR leukemia
HL-60(TB) leukemia = system: HL-60(TB) leukemia
T-47D breast = system: T-47D breast
OVCAR-8 ovarian = system: OVCAR-8 ovarian
LOX IMVI melanoma = system: LOX IMVI melanoma
HCT-116 colon = system: HCT-116 colon
HCC-2998 colon = system: HCC-2998 colon
OVCAR-5 ovarian = system: OVCAR-5 ovarian
MCF7 breast = system: MCF7 breast
OVCAR-4 ovarian = system: OVCAR-4 ovarian
BT-549 breast = system: BT-549 breast
COLO 205 colon = system: COLO 205 colon
MDA-MB-435 = system: MDA-MB-435
MDA-MB-231 breast = system: MDA-MB-231 breast
SK-OV-3 ovarian = system: SK-OV-3 ovarian
DU-145 prostate = system: DU-145 prostate
UACC-257 melanoma = system: UACC-257 melanoma
PC-3 prostate = system: PC-3 prostate
NCI-H23 lung = system: NCI-H23 lung
RXF 393 renal = system: RXF 393 renal
MOLT-4 leukemia = system: MOLT-4 leukemia
NCI/ADR-RES ovarian = system: NCI/ADR-RES ovarian
SN12C renal = system: SN12C renal
OVCAR-3 ovarian = system: OVCAR-3 ovarian
KM12 colon = system: KM12 colon
IGROV1 ovarian = system: IGROV1 ovarian
RPMI-8226 leukemia = system: RPMI-8226 leukemia
HOP-92 NSCLC = system: HOP-92 NSCLC
SF-539 CNS = system: SF-539 CNS
SNB-19 CNS = system: SNB-19 CNS
A549 NSCLC = system: A549 NSCLC
A498 renal = system: A498 renal
SK-MEL-5 melanoma = system: SK-MEL-5 melanoma
M14 melanoma = system: M14 melanoma
ACHN renal = system: ACHN renal
CAKI-1 renal = system: CAKI-1 renal
HOP-62 NSCLC = system: HOP-62 NSCLC
SW-620 colon = system: SW-620 colon

CN1/C(=C\C(I)C(I)C2=[N+](C)c3ccccc3C2(C)C)C(C)(C)c2ccccc21 (stereo unspecified)
GI50 (CCRF-CEM leukemia): 226 nM
TGI (CCRF-CEM leukemia): 31000 nM
GI50 (EKVX NSCLC): 369 nM
TGI (EKVX NSCLC): 36700 nM
GI50 (SNB-75 CNS): 416 nM
TGI (SNB-75 CNS): 9770 nM
GI50 (HCT-15 colon): 997 nM
TGI (HCT-15 colon): > 37600 nM
GI50 (HT29 colon): 242 nM
TGI (HT29 colon): 11400 nM
GI50 (U251 CNS): 262 nM
TGI (U251 CNS): 15700 nM
GI50 (SK-MEL-28 melanoma): 522 nM
TGI (SK-MEL-28 melanoma): 19800 nM
GI50 (UO-31 renal): 601 nM
TGI (UO-31 renal): 9750 nM
GI50 (K-562 leukemia): 202 nM
TGI (K-562 leukemia): 14600 nM
GI50 (786-0 renal): 904 nM
TGI (786-0 renal): 16200 nM
GI50 (NCI-H460 lung): 205 nM
TGI (NCI-H460 lung): 10700 nM
GI50 (NCI-H522 lung): 257 nM
TGI (NCI-H522 lung): 10200 nM
GI50 (UACC-62 melanoma): 303 nM
TGI (UACC-62 melanoma): 14200 nM
GI50 (NCI-H226 lung): 200 nM
TGI (NCI-H226 lung): 24200 nM
GI50 (SF-268 CNS): 479 nM
TGI (SF-268 CNS): 19100 nM
GI50 (SF-295 CNS): 192 nM
TGI (SF-295 CNS): 2480 nM
GI50 (MALME-3M melanoma): 277 nM
TGI (MALME-3M melanoma): 14000 nM
GI50 (HS 578T breast): 992 nM
TGI (HS 578T breast): 39200 nM
GI50 (TK-10 renal): 521 nM
TGI (TK-10 renal): 27900 nM
GI50 (SK-MEL-2 melanoma): 390 nM
TGI (SK-MEL-2 melanoma): 2750 nM
GI50 (SR leukemia): 151 nM
TGI (SR leukemia): 13800 nM
GI50 (HL-60(TB) leukemia): 178 nM
TGI (HL-60(TB) leukemia): 651 nM
GI50 (T-47D breast): 85.2 nM
TGI (T-47D breast): 9390 nM
GI50 (OVCAR-8 ovarian): 303 nM
TGI (OVCAR-8 ovarian): 13900 nM
GI50 (LOX IMVI melanoma): 295 nM
TGI (LOX IMVI melanoma): 13400 nM
GI50 (HCT-116 colon): 85.2 nM
TGI (HCT-116 colon): 11600 nM
GI50 (HCC-2998 colon): 371 nM
TGI (HCC-2998 colon): 16900 nM
GI50 (OVCAR-5 ovarian): 1250 nM
TGI (OVCAR-5 ovarian): > 70500 nM
GI50 (MCF7 breast): 485 nM
TGI (MCF7 breast): 19200 nM
GI50 (OVCAR-4 ovarian): 250 nM
TGI (OVCAR-4 ovarian): 22500 nM
GI50 (BT-549 breast): 119 nM
TGI (BT-549 breast): 3170 nM
GI50 (COLO 205 colon): 210 nM
TGI (COLO 205 colon): 733 nM
GI50 (MDA-MB-435): 260 nM
TGI (MDA-MB-435): 11600 nM
GI50 (MDA-MB-231 breast): 773 nM
TGI (MDA-MB-231 breast): 20900 nM
GI50 (SK-OV-3 ovarian): 247 nM
TGI (SK-OV-3 ovarian): 1600 nM
GI50 (DU-145 prostate): 386 nM
TGI (DU-145 prostate): > 56700 nM
GI50 (UACC-257 melanoma): 175 nM
TGI (UACC-257 melanoma): 2240 nM
GI50 (PC-3 prostate): 177 nM
TGI (PC-3 prostate): 12300 nM
GI50 (NCI-H23 lung): 114 nM
TGI (NCI-H23 lung): 9330 nM
GI50 (RXF 393 renal): 497 nM
TGI (RXF 393 renal): 3600 nM
GI50 (MOLT-4 leukemia): 243 nM
TGI (MOLT-4 leukemia): 2070 nM
GI50 (NCI/ADR-RES ovarian): 13300 nM
TGI (NCI/ADR-RES ovarian): 42200 nM
GI50 (SN12C renal): 277 nM
TGI (SN12C renal): 9860 nM
GI50 (OVCAR-3 ovarian): 304 nM
TGI (OVCAR-3 ovarian): 13800 nM
GI50 (KM12 colon): 330 nM
TGI (KM12 colon): 11800 nM
GI50 (IGROV1 ovarian): 464 nM
TGI (IGROV1 ovarian): 42500 nM
GI50 (RPMI-8226 leukemia): 57 nM
TGI (RPMI-8226 leukemia): 2670 nM
GI50 (HOP-92 NSCLC): 93.1 nM
TGI (HOP-92 NSCLC): 1230 nM
GI50 (SF-539 CNS): 783 nM
TGI (SF-539 CNS): 23600 nM
GI50 (SNB-19 CNS): 291 nM
TGI (SNB-19 CNS): 40300 nM
GI50 (A549 NSCLC): 283 nM
TGI (A549 NSCLC): 18300 nM
GI50 (A498 renal): 178 nM
TGI (A498 renal): 1490 nM
GI50 (SK-MEL-5 melanoma): 126 nM
TGI (SK-MEL-5 melanoma): 528 nM
GI50 (M14 melanoma): 367 nM
TGI (M14 melanoma): 13200 nM
GI50 (ACHN renal): 665 nM
TGI (ACHN renal): 26400 nM
GI50 (CAKI-1 renal): 974 nM
TGI (CAKI-1 renal): > 38600 nM
GI50 (HOP-62 NSCLC): 383 nM
TGI (HOP-62 NSCLC): 13800 nM
GI50 (SW-620 colon): 333 nM
TGI (SW-620 colon): 17000 nM

Source: PubChem BioAssay (NCI)
